# Data taken from paper PMC10413841, “Exploration of Thiourea-Based Scaffolds for the Construction of Bacterial Ureases Inhibitors” (ACS Omega, 2023).
# Where “and” joins values, the source holds several entries; their conditions need not be identical. Equal values may be shown once. Read-outs that look alike come from different tables or passages of the source.
# Tests used:
# [1] = target: T1, native S. pasteurii CCM 2056 urease (Sporosarcina pasteurii, UniProt P41020); assay: Inhibition of purified native urease, indophenol (Berthelot) ammonia assay; assay type: biochemical; settings: for Ki: purified native enzyme, EI dissociation constant from Lineweaver-Burke plots, urea up to 30 mM, 3 mM phosphate buffer; for type (mode) of inhibition / α quantifier between ESI dissociation constant Ki* and EI dissociation constant Ki: purified S. pasteurii urease
# T1 construct: The S. pasteurii CCM 2056 cells were used as the source of a native enzyme; endogenous in cells; host or cells: S. pasteurii CCM 2056 culture; endogenous enzyme purified in house from the sonicated cell extract by five-step chromatography
# T1 sequence (P41022 whole entry): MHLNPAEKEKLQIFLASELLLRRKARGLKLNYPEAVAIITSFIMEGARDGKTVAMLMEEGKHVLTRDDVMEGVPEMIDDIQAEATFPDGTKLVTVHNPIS
# T1 sequence (P41021 whole entry, further chain): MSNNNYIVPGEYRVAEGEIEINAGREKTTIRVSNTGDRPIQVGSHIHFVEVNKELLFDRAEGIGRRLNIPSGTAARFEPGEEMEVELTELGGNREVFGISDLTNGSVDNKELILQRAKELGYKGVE
# T1 sequence (P41020 whole entry): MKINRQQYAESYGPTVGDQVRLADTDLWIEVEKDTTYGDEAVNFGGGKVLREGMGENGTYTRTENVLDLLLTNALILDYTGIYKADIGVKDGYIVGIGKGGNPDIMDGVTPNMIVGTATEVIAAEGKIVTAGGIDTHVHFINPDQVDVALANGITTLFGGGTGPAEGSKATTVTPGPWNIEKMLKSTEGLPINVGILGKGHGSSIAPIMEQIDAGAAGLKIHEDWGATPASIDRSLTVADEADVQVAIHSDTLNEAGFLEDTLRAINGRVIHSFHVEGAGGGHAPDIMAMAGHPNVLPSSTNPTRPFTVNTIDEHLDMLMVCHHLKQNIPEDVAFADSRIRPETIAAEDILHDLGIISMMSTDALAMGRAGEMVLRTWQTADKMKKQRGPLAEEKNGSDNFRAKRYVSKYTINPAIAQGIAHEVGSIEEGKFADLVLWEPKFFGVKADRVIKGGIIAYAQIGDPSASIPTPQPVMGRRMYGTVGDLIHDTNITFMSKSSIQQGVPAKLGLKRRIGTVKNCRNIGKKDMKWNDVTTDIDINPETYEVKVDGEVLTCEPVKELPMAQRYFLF
# Protocol: The kinetic properties of the compounds as potential urease inhibitors were evaluated against native enzyme purified from S. pasteurii CCM 2056 culture. Residual enzyme activity was expressed as ammonia release from urea followed quantitively using the Berthelot reaction. All of the studied structures were reversibly inhibitory, with dissociation constants ranging from submicromolar to moderate micromolar concentrations (Table 1). The α quantifier between the enzyme-substrate-inhibitor complex (ESI) dissociation constant Ki* and the EI dissociation constant Ki [drawing 1] was calculated to determine the influence of substrate binding on the stability of the EI complex. […] For modeled compounds 19, 16, and 29, the values of α were 152.01, 38.04, and 14.52, respectively. […] For comparison, the α value of compound 52 was 1.37.
# The S. pasteurii CCM 2056 cells were used as the source of a native enzyme. The culture medium was made of 20 g/L yeast extract. One day after the inoculation, the medium was further supplemented with 1 mM NiCl2 and 1% urea. After 2 more days of growth, the cells were centrifuged and disintegrated via sonication. Enzyme purification from the cell extract was conducted using a five-step chromatographic method as previously reported.[50]
# Inhibition of the purified urease was measured using the indophenol assay for ammonia concentration.[65] The kinetic assays in 3 mM phosphate buffer contained the purified enzyme, studied thiourea analogues, and a range of urea concentrations up to saturating 30 mM. Total progress curves were analyzed with the addition of the enzyme at the reaction start. Assays were terminated with the sequential addition of 100 μL of M1 ([…] sodium nitroprusside, 0.53 M phenol) and M2 (0.625 M sodium hydroxide, 47.1 mM sodium hypochlorite) solution to 50 μL of reaction mixture sample. After 15 min of color development, absorbance at 650 nm was measured. […] In order to verify the inhibition mode as well as calculate the dissociation constant for EI complex, Lineweaver–Burke curves were plotted (1/v = f(1/[S])). For noncompetitive or mixed inhibition mode, Ki was calculated from plots of the LB curves slope as a function of inhibitor concentration.
# [2] = system: live cells of S. pasteurii CCM 2056; assay: Whole-cell ureolysis: ammonia release from urea in live cells; assay type: cell-based, Sporosarcina pasteurii; settings: for IC50: Sporosarcina pasteurii, CCM2056
# [3] = system: live cells of P. mirabilis PCM 543; assay: as above; assay type: cell-based, Proteus mirabilis; settings: urea hydrolysis in live cells, 30 mM urea, 10 mM PBS, read-out: IC50 [μM] (± SD) P. mirabilis cells
# Protocol: Proteus mirabilis PCM 543 was cultured as described for S. pasteurii except for nickel ions—0.3 mM NiCl2 was used in the growth medium. Cells harvested by centrifugation were resuspended in 10 mM PBS and used for urease activity measurements. Assays were conducted in 10 mM PBS containing 30 mM urea and different concentrations of urease inhibitors and ammonia quantified by indophenol assay.
# [4] = urea hydrolysis in live cells, 30 mM urea, 10 mM PBS, read-out: IC50 [μM] (± SD) S. pasteurii cells
SMILES,Ki ([1]; read-out: Ki [μM] (± SD)),"IC50 [2, 4] [µM]",IC50 ([3]; Proteus mirabilis) [µM],other results
"Cc1ccc(/C=C/C(=N\NC(N)=S)c2ccccc2)cc1 [Compound 22, (E)-2-((E)-1-Phenyl-3-(p-tolyl)allylidene)hydrazine-1-carbothioamide]",5.18 ± 0.691 µM,764 ± 50.3,1110 ± 126,–
"NC(=S)N/N=C(\C=C\c1ccc(Cl)cc1)c1ccccc1 [Compound 23, (E)-2-((E)-3-(4-Chlorophenyl)-1-phenylallylidene)hydrazine-1-carbothioamide]",14.9 ± 2.01 µM,58.4 ± 3.21,430 ± 26.9,–
"Cc1ccc(C2CC(c3ccccc3)=NN2C(N)=S)cc1 (stereo not shown) [Compound 33, 3-Phenyl-5-(p-tolyl)-4,5-dihydro-1H-pyrazole-1-carbothioamide]",87.1 ± 9.29 µM,–,–,–
"NNC(=S)N/N=C(\C=C\c1ccc(Cl)cc1)c1ccccc1 [Compound 31, N′-((1E,2E)-3-(4-Chlorophenyl)-1-phenylallylidene)hydrazinecarbothiohydrazide]",12.8 ± 1.54 µM,132 ± 6.9,–,–
"COc1ccc(/C=N/NC(N)=S)cc1OC [Compound 18, (E)-2-(3,4-Dimethoxybenzylidene)hydrazine-1-carbothioamide]",37.5 ± 4.79 µM,–,–,–
"COc1ccc(-c2csc(NC(=S)NCc3ccccc3)n2)c(OC)c1 [Compound 51, 1-Benzyl-3-(4-(2,4-dimethoxyphenyl)thiazol-2-yl)thiourea]",–,326 ± 18.7,509 ± 31.6,Ki ([1]; Ki [μM] (± SD)): 22.2 ± 2.66 µM
"C/C(=N\NC(N)=S)c1ccc(O)cc1 [Compound 20, (E)-2-(1-(4-Hydroxyphenyl)ethylidene)hydrazine-1-carbothioamide]",33.4 ± 2.61 µM,87.6 ± 9.07,513 ± 33.9,type (mode) of inhibition [1]: noncompetitive
"NC(=S)N1N=C(c2ccccc2)CC1c1ccc(Cl)cc1 (stereo not shown) [Compound 34, 5-(4-Chlorophenyl)-3-phenyl-4,5-dihydro-1H-pyrazole-1-carbothioamide]",30.5 ± 2.84 µM,–,–,–
"COc1ccc(C2=NN(C(N)=S)C(c3ccccc3)C2)c(OC)c1 (stereo not shown) [Compound 36, 3-(2,4-Dimethoxyphenyl)-5-phenyl-4,5-dihydro-1H-pyrazole-1-carbothioamide]",57.7 ± 4.42 µM,–,–,–
"S=C(NCc1ccccc1)Nc1nc(-c2ccccc2)cs1 [Compound 49, 1-Benzyl-3-(4-phenylthiazol-2-yl)thiourea]",46 ± 3.71 µM,476 ± 26.1,554 ± 18.8,–
"NC(=S)N/N=C/c1ccc(Cl)cc1 [Compound 17, (E)-2-(4-Chlorobenzylidene)hydrazine-1-carbothioamide]",8.15 ± 0.908 µM,16.4 ± 0.94,454 ± 26.3,–
"NC(=S)N/N=C(\C=C\c1ccc(F)cc1)c1ccccc1 [Compound 24, (E)-2-((E)-3-(4-Fluorophenyl)-1-phenylallylidene)hydrazine-1-carbothioamide]",24.2 ± 1.52 µM,36.2 ± 2.84,510 ± 17.8,–
"NC(=S)N1N=C(c2ccccc2)CC1c1ccccc1 (stereo not shown) [Compound 32, 3,5-Diphenyl-4,5-dihydro-1H-pyrazole-1-carbothioamide]",71.7 ± 8.26 µM,–,–,–
"Cc1ccc(/C=C/C(=N\NC(=S)NN)c2ccccc2)cc1 [Compound 30, N′-((1E,2E)-1-Phenyl-3-(p-tolyl)allylidene)hydrazinecarbothiohydrazide]",59.5 ± 4.4 µM,553 ± 27.8,–,–
"Oc1ccc(-c2csc(NC(=S)NCc3ccccc3)n2)cc1 [Compound 52, 1-Benzyl-3-(4-(4-hydroxyphenyl)thiazol-2-yl)thiourea]",2.76 µM,76.3 ± 4.5,304 ± 14,type (mode) of inhibition [1]: noncompetitive inhibition; α quantifier between ESI dissociation constant Ki* and EI dissociation constant Ki [1]: 1.37; fold change of inhibitory activity (IC50) against S. pasteurii cells compared to nonhydroxylated analogue 49 ([2]; 52 versus 49): over 6 fold; IC50 [3]: 304 ± 13.9 µM
"COc1ccc(-c2csc(NC(=S)NCc3ccccc3)n2)cc1 [Compound 50, 1-Benzyl-3-(4-(4-methoxyphenyl)thiazol-2-yl)thiourea]",41.4 ± 3.73 µM,–,–,–

SMILES,Ki ([1]; read-out: Ki [μM] (± SD)),"IC50 [2, 4] [µM]",IC50 ([3]; Proteus mirabilis) [µM],other results
"SC1=NC(c2ccccc2)=CC(c2ccccc2)N1 (stereo not shown) [Compound 37, 4,6-Diphenyl-3,4-dihydropyrimidine-2(1H)-thione]",36.2 ± 5.2 µM,–,–,–
"COc1ccc(C2=CC(c3ccccc3)NC(=S)N2)c(OC)c1 (stereo not shown) [Compound 41, 6-(2,4-Dimethoxyphenyl)-4-phenyl-3,4-dihydropyrimidine-2(1H)-thione]",47.7 ± 6.31 µM,–,–,–
"Fc1ccc(C2C=C(c3ccccc3)NC(=S)N2)cc1 (stereo not shown) [Compound 40, 4-(4-Fluorophenyl)-6-phenyl-3,4-dihydropyrimidine-2(1H)-thione]",5.55 ± 0.873 µM,–,–,–
"COc1ccc(C(/C=C/c2ccccc2)=N/NC(N)=S)c(OC)c1 [Compound 26, (E)-2-((E)-1-(2,4-Dimethoxyphenyl)-3-phenylallylidene)hydrazine-1-carbothioamide]",3.02 ± 0.23 µM,134 ± 11.4,–,type (mode) of inhibition [1]: noncompetitive
"Cc1ccc(/C=N/NC(N)=S)cc1 [Compound 16, (E)-2-(4-Methylbenzylidene)hydrazine-1-carbothioamide]",0.99 µM and 0.998 µM,9.92 ± 1.31,282 ± 32.4,α quantifier between ESI dissociation constant Ki* and EI dissociation constant Ki [1]: 38.04
"NNC(=S)N/N=C/c1ccccc1 [Compound 27, (E)-N′-Benzylidenehydrazinecarbothiohydrazide]",8.31 ± 0.438 µM,11.6 ± 0.65,544 ± 17.9,–
"C/C(=N\NC(N)=S)c1ccccc1 [Compound 19, (E)-2-(1-Phenylethylidene)hydrazine-1-carbothioamide]",0.39 µM and 0.391 µM,194 ± 12.5,568 ± 47.7,α quantifier between ESI dissociation constant Ki* and EI dissociation constant Ki [1]: 152.01
"NC(=S)N1N=C(c2ccccc2)CC1c1ccc(F)cc1 (stereo not shown) [Compound 35, 5-(4-Fluorophenyl)-3-phenyl-4,5-dihydro-1H-pyrazole-1-carbothioamide]",46.5 ± 6.3 µM,–,–,–
"S=C(NCc1ccccc1)Nc1nc(-c2ccc(Br)cc2)cs1 [Compound 53, 1-Benzyl-3-(4-(4-bromophenyl)thiazol-2-yl)thiourea]",10.7 ± 0.79 µM,416 ± 32.4,638 ± 48.2,–
"NC(=S)N/N=C(\C=C\c1ccccc1)c1ccc(O)cc1 [Compound 25, (E)-2-((E)-1-(4-Hydroxyphenyl)-3-phenylallylidene)hydrazine-1-carbothioamide]",5.4 ± 0.327 µM,149 ± 8.7,763 ± 41.1,type (mode) of inhibition [1]: noncompetitive
"NNC(=S)N/N=C(\C=C\c1ccccc1)c1ccccc1 [Compound 29, N′-((1E,2E)-1,3-Diphenylallylidene)hydrazinecarbothiohydrazide]",2.24 µM,–,–,α quantifier between ESI dissociation constant Ki* and EI dissociation constant Ki [1]: 14.52
"NC(=S)N/N=C(\C=C\c1ccccc1)c1ccccc1 [Compound 21, (E)-2-((E)-1,3-Diphenylallylidene)hydrazine-1-carbothioamide]",6.13 ± 0.714 µM,102 ± 8.4,519 ± 27.6,type (mode) of inhibition [1]: noncompetitive
"Cc1ccc(/C=N/NC(=S)NN)cc1 [Compound 28, (E)-N′-(4-Methylbenzylidene)hydrazinecarbothiohydrazide]",13.5 ± 3.16 µM,118 ± 7.7,664 ± 35.2,–
"Cc1ccc(C2C=C(c3ccccc3)NC(=S)N2)cc1 (stereo not shown) [Compound 38, 6-Phenyl-4-(p-tolyl)-3,4-dihydropyrimidine-2(1H)-thione]",27.4 ± 3.47 µM,–,–,–
"S=C1NC(c2ccccc2)=CC(c2ccc(Cl)cc2)N1 (stereo not shown) [Compound 39, 4-(4-Chlorophenyl)-6-phenyl-3,4-dihydropyrimidine-2(1H)-thione]",30.2 ± 4.23 µM,–,–,–
"NC(=S)N/N=C/c1ccccc1 [Compound 15, (E)-2-Benzylidenehydrazine-1-carbothioamide]",3.57 ± 0.182 µM,3.83 ± 0.282,347 ± 23.1,"IC50 ([2]; Gram-positive S. pasteurii cells, ureolysis inhibition, read-out: IC50 in S. pasteurii cells (unit inferred)): 3.8 ± 0.2 µM"
